Measurements as given in US9403830B2, “Inhibitors of leukotriene production” (Boehringer Ingelheim International GmbH, priority 2012, dated 2016).

What was measured:
[1] = system: LTB4 synthesis in human whole blood; assay: human whole blood (HWB) assay, inhibition of LTB4 production; format: cell-based; conditions: heparinized human whole blood, calcimycin 20 μM stimulation, plasma LTB4
Summary of the method: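 Plasma LTB4, quantified by HTRF immunoassay, is the read-out after calcimycin challenge (20 μM final, 30 min, 37 °C) of heparinized whole blood that had been pretreated with compound for 15 min at 37 °C; values given as IC50.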

human LTA4 hydrolase = biological target: T1, human LTA4 hydrolase (Homo sapiens, UniProt P09960); assay: LTA4H Enzyme assay (peptidase, Arg-AMC cleavage); format: biochemical; conditions: LTA4H enzyme 1 nM, Arg-AMC substrate 50 μM, room temperature 1 h, fluorescence 380/460 nm
T1 sequence (P09960 1-611): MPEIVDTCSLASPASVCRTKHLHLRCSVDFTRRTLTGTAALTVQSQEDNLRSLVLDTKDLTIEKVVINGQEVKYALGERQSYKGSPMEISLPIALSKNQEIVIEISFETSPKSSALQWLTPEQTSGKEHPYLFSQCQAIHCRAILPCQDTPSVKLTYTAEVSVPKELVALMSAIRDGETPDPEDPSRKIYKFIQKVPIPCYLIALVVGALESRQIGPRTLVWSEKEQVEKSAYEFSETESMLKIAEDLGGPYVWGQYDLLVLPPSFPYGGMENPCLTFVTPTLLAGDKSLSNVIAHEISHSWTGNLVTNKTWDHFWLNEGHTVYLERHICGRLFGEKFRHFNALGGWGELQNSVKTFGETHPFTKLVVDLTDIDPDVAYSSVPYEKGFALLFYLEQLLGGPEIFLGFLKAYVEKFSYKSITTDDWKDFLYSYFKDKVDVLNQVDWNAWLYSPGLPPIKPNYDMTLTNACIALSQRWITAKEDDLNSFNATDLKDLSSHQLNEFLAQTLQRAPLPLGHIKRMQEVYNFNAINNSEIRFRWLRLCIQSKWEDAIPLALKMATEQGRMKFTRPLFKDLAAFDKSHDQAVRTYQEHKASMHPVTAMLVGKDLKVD
Summary of the method: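 Human LTA4H (1 nM final) incubated with compound and Arg-AMC (50 μM final) in 50 mM Tris-HCl pH 7.5, 100 mM KCl, 0.5% BSA, 1 h at room temperature. Product read as AMC fluorescence (ex 380/em 460 nm); IC50 reported.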

Row | IC50 [1] [nM] | IC50 (human LTA4 hydrolase) [nM] | SMILES
1 | 200 | 0.37 | c1cc(-c2ccc(Oc3ccc4ncc(CN5CCOCC5)cc4c3)cc2)[nH]n1 [Example 249, 3-Morpholin-4-ylmethyl-6-[4-(2H-pyrazol-3-yl)-phenoxy]-quinoline]
2 | 210 | 0.57 | c1cc(-c2ccc(Oc3ccc4nc(CN5CCOCC5)cn4c3)cc2)[nH]n1 [Example 250, 2-Morpholin-4-ylmethyl-6-[4-(2H-pyrazol-3-yl)-phenoxy]-imidazo[1,2-a]pyridine]
3 | 220 | 0.87 | O=C1CC[C@@H](Cn2cc3cc(Oc4ccc(-c5ccn[nH]5)cc4)ccc3n2)N1 [Example 251, (S)-5-{5-[4-(2H-Pyrazol-3-yl)-phenoxy]-indazol-2-ylmethyl}-pyrrolidin-2-one]
4 | 250 | 0.93 | c1cc(-c2ccc(Cc3ccc4nc(CN5CCOCC5)cn4c3)cc2)[nH]n1 [Example 252, 2-Morpholin-4-ylmethyl-6-[4-(2H-pyrazol-3-yl)-benzyl]-imidazo[1,2-a]pyridine]
5 | 300 | 1.4 | O=C1CC[C@@H](Cn2ncc3cc(Oc4ccc(-c5ccn[nH]5)cc4)ccc32)N1 [Example 253, (S)-5-{5-[4-(2H-Pyrazol-3-yl)-phenoxy]-indazol-1-ylmethyl}-pyrrolidin-2-one]
6 | 330 | 0.7 | c1cc(-c2ccc(Oc3ccc4nc(CN5CCOCC5)ccc4c3)cc2)[nH]n1 [Example 254, 2-Morpholin-4-ylmethyl-6-[4-(2H-pyrazol-3-yl)-phenoxy]-quinoline]
7 | 360 | 1.7 | O=C1OCCN1Cc1cn2cc(Oc3ccc(-c4ccn[nH]4)cc3)ccc2n1 [Example 255, 3-{6-[4-(2H-Pyrazol-3-yl)-phenoxy]-imidazo[1,2-a]pyridin-2-ylmethyl}-oxazolidin-2-one]
8 | 480 | 1.6 | Cc1nc2ccc(Oc3ccc(-c4ccn[nH]4)cc3)cc2cc1CN1CCCC1 [Example 256, 2-Methyl-6-[4-(2H-pyrazol-3-yl)-phenoxy]-3-pyrrolidin-1-ylmethyl-quinoline]
9 | 650 | 2.5 | c1cc(-c2ccc(Oc3ccn4cc(CN5CCOCC5)nc4c3)cc2)[nH]n1 [Example 257, 2-Morpholin-4-ylmethyl-7-[4-(2H-pyrazol-3-yl)-phenoxy]-imidazo[1,2-a]pyridine]
10 | 2000 | 10 | O=C(c1cn2ccc(Oc3ccc(-c4ccn[nH]4)cc3)cc2n1)N1CCOCC1 [Example 258, Morpholin-4-yl-{7-[4-(2H-pyrazol-3-yl)-phenoxy]-imidazo[1,2-a]pyridin-2-yl}-methanone]
11 | 2100 | 0.12 | O=C(O)C1CCN(Cc2cn3cc(Oc4ccc(-c5ccn[nH]5)cc4)ccc3n2)CC1 [Example 259, 1-{6-[4-(2H-Pyrazol-3-yl)-phenoxy]-imidazo[1,2-a]pyridin-2-ylmethyl}-piperidine-4-carboxylic acid]
12 | 2200 | 5.3 | O=C1CC[C@@H](OCc2cn3cc(Oc4ccc(-c5ccn[nH]5)cc4)ccc3n2)CN1 [Example 260, (R)-5-{6-[4-(2H-Pyrazol-3-yl)-phenoxy]-imidazo[1,2-a]pyridin-2-ylmethoxy}-piperidin-2-one]

The remaining lines, values behind:

Row | SMILES | IC50 [1] [nM] | IC50 (human LTA4 hydrolase) [nM]
13 | CC1(C)CCN(Cc2nc3cc(Oc4ccc(-c5ccn[nH]5)cc4)ccc3[nH]2)C1=O [Example 234, 3,3-Dimethyl-1-{5-[4-(2H-pyrazol-3-yl)-phenoxy]-1H-benzoimidazol-2-ylmethyl}-pyrrolidin-2-one] | 180 | 0.26
14 | CCN(Cc1nc2cc(Oc3ccc(-c4ccn[nH]4)cc3)ccc2[nH]1)C(=O)C1CC1 [Example 235, Cyclopropanecarboxylic acid ethyl-{5-[4-(2H-pyrazol-3-yl)-phenoxy}-1H-benzoimidazol-2-ylmethyl}-amide] | 180 | 0.43
15 | COCC(=O)NC1CCN(Cc2ccc3cc(Oc4ccc(-c5cc[nH]n5)cn4)ccc3n2)CC1 [Example 236, 2-Methoxy-N-(1-{6-[5-(1H-pyrazol-3-yl)-pyridin-2-yloxy]-quinolin-2-ylmethyl}-piperidin-4-yl)-acetamide] | 200 | 0.96
16 | CC(=O)NC1CCN(Cc2ccc3cc(Oc4ccc(-c5cc[nH]n5)cn4)ccc3n2)CC1 [Example 237, N-(1-{6-[5-(1H-Pyrazol-3-yl)-pyridin-2-yloxy]-quinolin-2-ylmethyl}-piperidin-4-yl)-acetamide] | 210 | 0.84
17 | CC(=O)NC1CC2CCC(C1)N2Cc1ccc2cc(Oc3ccc(-c4cc[nH]n4)cn3)ccc2n1 (stereo not drawn) [Example 238, N-((endo)-8-{6-[5-(1H-Pyrazol-3-yl)-pyridin-2-yloxy]-quinolin-2-ylmethyl}-8-aza-bicyclo[3.2.1]oct-3-yl)-acetamide] | 250 | 0.61
18 | CC(=O)N[C@@H]1C[C@H]2CC[C@@H](C1)N2Cc1ccc2cc(Oc3ccc(-c4cc[nH]n4)cn3)ccc2n1 [Example 239, N-((exo)-8-{6-[5-(1H-Pyrazol-3-yl)-pyridin-2-yloxy]-quinolin-2-ylmethyl}-8-aza-bicyclo[3.2.1]oct-3-yl)-acetamide] | 260 | 0.43
19 | CC(=O)N1C[C@@H]2C[C@H]1CN2Cc1ccc2cc(Oc3ccc(-c4cc[nH]n4)cn3)ccc2n1 [Example 240, 1-((S)-5-{6-[5-(1H-Pyrazol-3-yl)-pyridin-2-yloxy]-quinolin-2-ylmethyl}-2,5-diaza-bicyclo[2.2.1]hept-2-yl)-ethanone] | 340 | 0.94
20 | CC(=O)N1CCN(Cc2cnc3cc(Oc4ccc(-c5ccn[nH]5)cc4)ccc3n2)CC1 [Example 241, 1-(4-{6-[4-(2H-Pyrazol-3-yl)-phenoxy]-quinoxalin-2-ylmethyl}-piperazin-1-yl)-ethanone] | 980 | 3.5
21 | O=S1(=O)CCN(Cc2ccc3cc(Oc4ccc(-c5cc[nH]n5)cn4)ccc3n2)CC1 [Example 242, 2-(1,1-Dioxo-1-λ-6-thiomorpholin-4-ylmethyl)-6-[5-(1H-pyrazol-3-yl)-pyridin-2-yloxy]-quinoline] | 210 | 1.6
22 | c1cc(-c2ccc(Oc3ccc4nc(CN5CCCC5)ccc4c3)cc2)[nH]n1 [Example 243, 6-[4-(2H-Pyrazol-3-yl)-phenoxy]-2-pyrrolidin-1-ylmethyl-quinoline] | 66 | 0.065
23 | c1cc(-c2ccc(Oc3ccc4nc(CN5CCC5)ccc4c3)cc2)[nH]n1 [Example 244, 2-Azetidin-1-ylmethyl-6-[4-(2H-pyrazol-3-yl)-phenoxy]-quinoline] | 120 | 0.048
24 | CC(=O)N1CC2CCC(C1)N2Cc1ccc2cc(Oc3ccc(-c4ccn[nH]4)cc3)ccc2n1 [Example 245, 1-(8-{6-[4-(2H-Pyrazol-3-yl)-phenoxy]-quinolin-2-ylmethyl}-3,8-diaza-bicyclo[3.2.1]oct-3-yl)-ethanone] | 170 | 0.18
25 | c1cc(-c2ccc(Oc3ccc4nc(CN5CCCC5)cn4c3)cc2)[nH]n1 [Example 246, 6-[4-(2H-Pyrazol-3-yl)-phenoxy]-2-pyrrolidin-1-ylmethyl-imidazo[1,2-a]pyridine] | 180 | 0.17
26 | CC(=O)N1CCN(Cc2ccc3cc(Oc4ccc(-c5ccn[nH]5)cc4)ccc3n2)CC1 [Example 247, 1-(4-{6-[4-(2H-Pyrazol-3-yl)-phenoxy]-quinolin-2-ylmethyl}-piperazin-1-yl)-ethanone] | 190 | 0.21
27 | CC(=O)N[C@@H]1C[C@H]2CC[C@@H](C1)N2Cc1ccc2cc(Oc3ccc(-c4ccn[nH]4)cc3)ccc2n1 [Example 248, N-((exo)-8-{6-[4-(2H-Pyrazol-3-yl)-phenoxy]-quinolin-2-ylmethyl}-8-aza-bicyclo[3.2.1]oct-3-yl)-acetamide] | 200 | 0.083
